Laboratory results taken from patent US11987588B2, “Modulators of the beta-3 adrenergic receptor useful for the treatment or prevention of heart failure and disorders related thereto” (Arena Pharmaceuticals, Inc., priority 2017, dated 2024).

The compounds below were run against Beta-3 Adrenergic Receptor (Homo sapiens (Human), UniProt P13945) (assay: Homogeneous Time-Resolved Fluorescence (HTRF) cAMP antagonist assay, IC50 determination). Details: CHO-K1 cells stably expressing recombinant receptor, isoproterenol at EC90.
Beta-3 Adrenergic Receptor, sequence (P13945 whole entry, species assumed): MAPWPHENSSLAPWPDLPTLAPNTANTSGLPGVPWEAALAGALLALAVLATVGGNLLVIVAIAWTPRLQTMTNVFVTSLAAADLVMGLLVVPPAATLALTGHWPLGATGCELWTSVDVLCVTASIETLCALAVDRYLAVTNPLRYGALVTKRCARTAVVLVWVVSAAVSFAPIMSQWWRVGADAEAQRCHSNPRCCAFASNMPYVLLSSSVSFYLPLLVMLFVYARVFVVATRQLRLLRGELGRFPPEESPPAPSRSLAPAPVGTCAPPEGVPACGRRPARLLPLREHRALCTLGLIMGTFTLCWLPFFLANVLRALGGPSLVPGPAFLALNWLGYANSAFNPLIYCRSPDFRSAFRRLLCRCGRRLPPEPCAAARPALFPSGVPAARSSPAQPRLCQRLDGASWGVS
Type: cell-based
In short: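 In this functional readout, recombinant CHO-K1 cells received compound, then isoproterenol at its EC90. After 1 h at room temperature, cAMP levels were determined by HTRF using an on-plate standard curve, and IC50 values were fitted.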

SMILES	IC50 [nM]
CNS(=O)(=O)c1cccc(OC[C@@H](O)CNC2COC3(CCN(S(=O)(=O)c4ccc(Br)c(C)c4)CC3)C2)c1 (stereo partly drawn) [Compound 159, 3-((2S)-3-(8-(4-bromo-3-methylphenylsulfonyl)-1-oxa-8-azaspiro[4.5]decan-3-ylamino)-2-hydroxypropoxy)-N-methylbenzenesulfonamide]	4.78
CCNS(=O)(=O)c1cccc(OC[C@@H](O)CNC2COC3(CCN(S(=O)(=O)c4cnn(-c5ccccc5)c4C)CC3)C2)c1 (stereo partly drawn) [Compound 230, N-ethyl-3-((2S)-2-hydroxy-3-(8-(5-methyl-1-phenyl-1H-pyrazol-4-ylsulfonyl)-1-oxa-8-azaspiro[4.5]decan-3-ylamino)propoxy)benzenesulfonamide]	85.4
CNS(=O)(=O)c1cccc(OC[C@@H](O)CNC2COC3(CCN(S(=O)(=O)c4cccc(-c5ccco5)c4)CC3)C2)c1 (stereo partly drawn) [Compound 78, 3-((2S)-3-(8-(3-(furan-2-yl)phenylsulfonyl)-1-oxa-8-azaspiro[4.5]decan-3-ylamino)-2-hydroxypropoxy)-N-methylbenzenesulfonamide]	20.7
CNS(=O)(=O)c1cccc(OC[C@@H](O)CNC2COC3(CCN(S(=O)(=O)c4cccc(-c5cnn(CC6CC6)c5)c4)CC3)C2)c1 (stereo partly drawn) [Compound 82, 3-((2S)-3-(8-(3-(1-(cyclopropylmethyl)-1H-pyrazol-4-yl)phenylsulfonyl)-1-oxa-8-azaspiro[4.5]decan-3-ylamino)-2-hydroxypropoxy)-N-methylbenzenesulfonamide]	15.9
CNS(=O)(=O)c1cccc(OC[C@@H](O)CNC2COC3(CCN(S(=O)(=O)c4cccc(-c5cn[nH]c5)c4)CC3)C2)c1 (stereo partly drawn) [Compound 64, 3-((2S)-3-(8-(3-(1H-pyrazol-4-yl)phenylsulfonyl)-1-oxa-8-azaspiro[4.5]decan-3-ylamino)-2-hydroxypropoxy)-N-methylbenzenesulfonamide]	11.1
CNS(=O)(=O)c1cccc(OC[C@@H](O)CNC2COC3(CCN(S(=O)(=O)c4cc(Br)ccc4OCCN4CCCC4)CC3)C2)c1 (stereo partly drawn) [Compound 412, 3-((2S)-3-(8-(5-bromo-2-(2-(pyrrolidin-1-yl)ethoxy)phenylsulfonyl)-1-oxa-8-azaspiro[4.5]decan-3-ylamino)-2-hydroxypropoxy)-N-methylbenzenesulfonamide]	49.6
CNS(=O)(=O)c1cccc(OC[C@@H](O)CN[C@H]2COC3(CCN(S(=O)(=O)c4cnc5ccccc5c4)CC3)C2)c1 [Compound 336, 3-((S)-2-hydroxy-3-((R)-8-(quinolin-3-ylsulfonyl)-1-oxa-8-azaspiro[4.5]decan-3-ylamino)propoxy)-N-methylbenzenesulfonamide]	15.3
COc1ccc(S(=O)(=O)N2CCC3(CC2)CC(NC[C@H](O)COc2cccc(S(=O)(=O)NCCCN(C)C)c2)CO3)cc1C (stereo partly drawn) [Compound 308, N-(3-(dimethylamino)propyl)-3-((2S)-2-hydroxy-3-(8-(4-methoxy-3-methylphenylsulfonyl)-1-oxa-8-azaspiro[4.5]decan-3-ylamino)propoxy)benzenesulfonamide]	1820
CNS(=O)(=O)c1cccc(OC[C@@H](O)CNC2COC3(CCN(S(=O)(=O)c4cccc(-c5ccc(CNCCC(C)C)cc5)c4)CC3)C2)c1 (stereo partly drawn) [Compound 320, 3-((2S)-2-hydroxy-3-(8-(4′-((isopentylamino)methyl)biphenyl-3-ylsulfonyl)-1-oxa-8-azaspiro[4.5]decan-3-ylamino)propoxy)-N-methylbenzenesulfonamide]	26.3
CNS(=O)(=O)c1cccc(OC[C@@H](O)CNC2COC3(CCN(S(=O)(=O)c4ccc(C(=O)O)cc4)CC3)C2)c1 (stereo partly drawn) [Compound 40, 4-(3-((S)-2-hydroxy-3-(3-(N-methylsulfamoyl)phenoxy)propylamino)-1-oxa-8-azaspiro[4.5]decan-8-ylsulfonyl)benzoic acid]	577
CCNS(=O)(=O)c1cccc(OC[C@@H](O)CNC2COC3(CCN(S(=O)(=O)c4cccc(-c5ccc(S(N)(=O)=O)cc5)c4)CC3)C2)c1 (stereo partly drawn) [Compound 211, 3′-(3-((S)-3-(3-(N-ethylsulfamoyl)phenoxy)-2-hydroxypropylamino)-1-oxa-8-azaspiro[4.5]decan-8-ylsulfonyl)biphenyl-4-sulfonamide]	16.5
CNS(=O)(=O)c1cccc(OC[C@@H](O)CNC2COC3(CCN(S(=O)(=O)c4cccc(-c5ccnc(C)c5)c4)CC3)C2)c1 (stereo partly drawn) [Compound 107, 3-((2S)-2-hydroxy-3-(8-(3-(2-methylpyridin-4-yl)phenylsulfonyl)-1-oxa-8-azaspiro[4.5]decan-3-ylamino)propoxy)-N-methylbenzenesulfonamide]	10.9
CNS(=O)(=O)c1cccc(OC[C@@H](O)CNC2COC3(CCN(S(=O)(=O)c4cc(-c5ccc(CN)cc5)cc(C(F)(F)F)c4)CC3)C2)c1 (stereo partly drawn) [Compound 367, 3-((2S)-3-(8-(4′-(aminomethyl)-5-(trifluoromethyl)biphenyl-3-ylsulfonyl)-1-oxa-8-azaspiro[4.5]decan-3-ylamino)-2-hydroxypropoxy)-N-methylbenzenesulfonamide]	31.2

Continued by falling IC50, values first:

IC50 [nM]	SMILES
2390	CCn1ccc(=O)c(S(=O)(=O)N2CCC3(CC2)C[C@@H](NC[C@H](O)COc2cccc(S(N)(=O)=O)c2)CO3)c1 [Compound 587, 3-((S)-3-((R)-8-(1-ethyl-4-oxo-1,4-dihydropyridin-3-ylsulfonyl)-1-oxa-8-azaspiro[4.5]decan-3-ylamino)-2-hydroxypropoxy)benzenesulfonamide]
216	CNS(=O)(=O)c1cccc(OC[C@@H](O)CN[C@H]2COC3(CCN(c4nccc(C)n4)CC3)C2)c1 [Compound 575, 3-((S)-2-hydroxy-3-((R)-8-(4-methylpyrimidin-2-yl)-1-oxa-8-azaspiro[4.5]decan-3-ylamino)propoxy)-N-methylbenzenesulfonamide]
155	CCNS(=O)(=O)c1cccc(OC[C@@H](O)CNC2COC3(CCN(S(=O)(=O)c4cc(C)ccc4F)CC3)C2)c1 (stereo partly drawn) [Compound 226, N-ethyl-3-((2S)-3-(8-(2-fluoro-5-methylphenylsulfonyl)-1-oxa-8-azaspiro[4.5]decan-3-ylamino)-2-hydroxypropoxy)benzenesulfonamide]
133	C[C@@H](CO)NS(=O)(=O)c1cccc(OC[C@@H](O)CNC2COC3(CCN(S(=O)(=O)c4ccc5ccccc5c4)CC3)C2)c1 (stereo partly drawn) [Compound 48, 3-((2S)-2-hydroxy-3-(8-(naphthalen-2-ylsulfonyl)-1-oxa-8-azaspiro[4.5]decan-3-ylamino)propoxy)-N—((S)-1-hydroxypropan-2-yl)benzenesulfonamide]
42.6	CNS(=O)(=O)c1cccc(OC[C@@H](O)CNC2COC3(CCN(S(=O)(=O)c4cc(C)oc4C(F)(F)F)CC3)C2)c1 (stereo partly drawn) [Compound 162, 3-((2S)-2-hydroxy-3-(8-(5-methyl-2-(trifluoromethyl)furan-3-ylsulfonyl)-1-oxa-8-azaspiro[4.5]decan-3-ylamino)propoxy)-N-methylbenzenesulfonamide]
34.1	CNS(=O)(=O)c1cccc(OC[C@@H](O)CNC2COC3(CCN(S(=O)(=O)c4ccc(C#N)cc4)CC3)C2)c1 (stereo partly drawn) [Compound 44, 3-((2S)-3-(8-(4-cyanophenylsulfonyl)-1-oxa-8-azaspiro[4.5]decan-3-ylamino)-2-hydroxypropoxy)-N-methylbenzenesulfonamide]
32.7	CNS(=O)(=O)c1cccc(OC[C@@H](O)CN[C@H]2COC3(CCN(S(=O)(=O)c4cnc5c(F)cccc5c4O)CC3)C2)c1 [Compound 540, 3-((S)-3-((R)-8-(8-fluoro-4-hydroxyquinolin-3-ylsulfonyl)-1-oxa-8-azaspiro[4.5]decan-3-ylamino)-2-hydroxypropoxy)-N-methylbenzenesulfonamide]
26	CNS(=O)(=O)c1cccc(OC[C@@H](O)CNC2COC3(CCN(S(=O)(=O)c4ccc(C(C)=O)cc4)CC3)C2)c1 (stereo partly drawn) [Compound 25, 3-((2S)-3-(8-(4-acetylphenylsulfonyl)-1-oxa-8-azaspiro[4.5]decan-3-ylamino)-2-hydroxypropoxy)-N-methylbenzenesulfonamide]
19.3	CNS(=O)(=O)c1cccc(OC[C@@H](O)CNC2COC3(CCN(S(=O)(=O)c4cccc(-c5cc[nH]c5)c4)CC3)C2)c1 (stereo partly drawn) [Compound 63, 3-((2S)-3-(8-(3-(1H-pyrrol-3-yl)phenylsulfonyl)-1-oxa-8-azaspiro[4.5]decan-3-ylamino)-2-hydroxypropoxy)-N-methylbenzenesulfonamide]
16.8	CNS(=O)(=O)c1cccc(OC[C@@H](O)CNC2COC3(CCN(S(=O)(=O)c4cccc(Cl)c4Cl)CC3)C2)c1 (stereo partly drawn) [Compound 142, 3-((2S)-3-(8-(2,3-dichlorophenylsulfonyl)-1-oxa-8-azaspiro[4.5]decan-3-ylamino)-2-hydroxypropoxy)-N-methylbenzenesulfonamide]
13.9	CNS(=O)(=O)c1cccc(OC[C@@H](O)CN[C@H]2COC3(CCN(S(=O)(=O)c4ccc(OC)c(-c5ccc(C6(N)CC6)cc5)c4)CC3)C2)c1 [Compound 464, 3-((S)-3-((R)-8-(4′-(1-aminocyclopropyl)-6-methoxybiphenyl-3-ylsulfonyl)-1-oxa-8-azaspiro[4.5]decan-3-ylamino)-2-hydroxypropoxy)-N-methylbenzenesulfonamide]
12.1	CNS(=O)(=O)c1cccc(OC[C@@H](O)CNC2COC3(CCN(S(=O)(=O)c4cc(F)ccc4C)CC3)C2)c1 (stereo partly drawn) [Compound 204, 3-((2S)-3-(8-(5-fluoro-2-methylphenylsulfonyl)-1-oxa-8-azaspiro[4.5]decan-3-ylamino)-2-hydroxypropoxy)-N-methylbenzenesulfonamide]
4.36	CNS(=O)(=O)c1cccc(OC[C@@H](O)CNC2COC3(CCN(S(=O)(=O)c4ccc(Br)c(Cl)c4)CC3)C2)c1 (stereo partly drawn) [Compound 155, 3-((2S)-3-(8-(4-bromo-3-chlorophenylsulfonyl)-1-oxa-8-azaspiro[4.5]decan-3-ylamino)-2-hydroxypropoxy)-N-methylbenzenesulfonamide]
